Patent publication US10544143B2, “4-azaindole compounds” (BRISTOL-MYERS SQUIBB COMPANY, priority 2017, dated 2020)
Like-named read-outs stand apart in the source and are kept apart here.

Legend:
human TLR8 = human TLR8 (Homo sapiens (Human), UniProt Q9NR97); test: TLR8 inhibition reporter assay (HEK-Blue SEAP); conditions: read-out: TLR8 IC50;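 note: SEAP driven by IFN-β minimal promoter carrying NF-κB and AP-1 sites, compounds dosed 0.05 nM to 50 µM for 22 h, inhibition scaled between agonist-plus-DMSO and reference-inhibitor wells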
human TLR9 = human TLR9 (Homo sapiens (Human), UniProt Q9NR96); test: TLR9 inhibition reporter assay (HEK-Blue SEAP); conditions: read-out: TLR9 IC50;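 note: SEAP driven by an IFN-β minimal promoter with NF-κB and AP-1 sites, read after 22 h, compounds dosed 0.05 nM–50 µM, inhibition scaled between agonist plus DMSO and reference-inhibitor wells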
human TLR7 = human TLR7 (Homo sapiens (Human), UniProt Q9NYK1); test: TLR7 inhibition reporter assay (HEK-Blue SEAP); type: cell-based
[1] = HEK-Blue cells overexpressing human TLR8, R848 15.9 μM stimulation, SEAP reporter
[2] = HEK-Blue cells overexpressing human TLR9, ODN2006 5 nM stimulation, SEAP reporter
[3] = HEK-Blue cells overexpressing human TLR7, gardiquimod 7.5 μM stimulation, SEAP reporter
[4] = HEK-Blue cells overexpressing human TLR8, SEAP reporter, R848 15.9 μM
[5] = HEK-Blue cells overexpressing human TLR9, SEAP reporter, ODN2006 5 nM
[6] = HEK-Blue cells overexpressing human TLR7, SEAP reporter, gardiquimod 7.5 μM

human TLR9, sequence (Q9NR96 26-1032): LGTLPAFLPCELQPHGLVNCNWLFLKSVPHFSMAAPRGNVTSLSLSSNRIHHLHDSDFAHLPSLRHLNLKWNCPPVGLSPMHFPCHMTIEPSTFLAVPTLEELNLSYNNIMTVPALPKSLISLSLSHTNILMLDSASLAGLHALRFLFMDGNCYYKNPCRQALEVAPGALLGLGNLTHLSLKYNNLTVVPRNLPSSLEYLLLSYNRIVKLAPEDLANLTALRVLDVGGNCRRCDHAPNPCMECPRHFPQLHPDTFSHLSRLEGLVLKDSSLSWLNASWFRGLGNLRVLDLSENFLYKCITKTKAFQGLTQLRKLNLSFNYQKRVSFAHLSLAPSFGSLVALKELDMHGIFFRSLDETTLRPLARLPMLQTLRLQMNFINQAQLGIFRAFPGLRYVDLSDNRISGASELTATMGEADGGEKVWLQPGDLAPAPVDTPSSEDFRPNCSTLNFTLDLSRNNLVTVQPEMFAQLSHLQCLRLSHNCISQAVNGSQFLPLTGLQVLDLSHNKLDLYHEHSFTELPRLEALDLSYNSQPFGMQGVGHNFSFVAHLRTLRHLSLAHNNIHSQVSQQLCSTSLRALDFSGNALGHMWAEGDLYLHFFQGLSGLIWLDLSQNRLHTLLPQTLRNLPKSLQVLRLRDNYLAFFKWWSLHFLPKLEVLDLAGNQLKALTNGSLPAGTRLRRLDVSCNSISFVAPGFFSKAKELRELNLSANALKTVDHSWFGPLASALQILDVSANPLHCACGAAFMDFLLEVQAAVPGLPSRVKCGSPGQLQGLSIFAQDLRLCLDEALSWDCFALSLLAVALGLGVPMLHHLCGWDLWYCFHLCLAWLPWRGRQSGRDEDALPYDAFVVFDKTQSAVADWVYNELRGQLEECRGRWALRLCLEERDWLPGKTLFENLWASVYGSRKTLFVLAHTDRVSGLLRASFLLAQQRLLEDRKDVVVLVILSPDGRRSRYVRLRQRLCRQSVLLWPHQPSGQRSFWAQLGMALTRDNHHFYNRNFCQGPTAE
human TLR8, sequence (Q9NR97 27-1041): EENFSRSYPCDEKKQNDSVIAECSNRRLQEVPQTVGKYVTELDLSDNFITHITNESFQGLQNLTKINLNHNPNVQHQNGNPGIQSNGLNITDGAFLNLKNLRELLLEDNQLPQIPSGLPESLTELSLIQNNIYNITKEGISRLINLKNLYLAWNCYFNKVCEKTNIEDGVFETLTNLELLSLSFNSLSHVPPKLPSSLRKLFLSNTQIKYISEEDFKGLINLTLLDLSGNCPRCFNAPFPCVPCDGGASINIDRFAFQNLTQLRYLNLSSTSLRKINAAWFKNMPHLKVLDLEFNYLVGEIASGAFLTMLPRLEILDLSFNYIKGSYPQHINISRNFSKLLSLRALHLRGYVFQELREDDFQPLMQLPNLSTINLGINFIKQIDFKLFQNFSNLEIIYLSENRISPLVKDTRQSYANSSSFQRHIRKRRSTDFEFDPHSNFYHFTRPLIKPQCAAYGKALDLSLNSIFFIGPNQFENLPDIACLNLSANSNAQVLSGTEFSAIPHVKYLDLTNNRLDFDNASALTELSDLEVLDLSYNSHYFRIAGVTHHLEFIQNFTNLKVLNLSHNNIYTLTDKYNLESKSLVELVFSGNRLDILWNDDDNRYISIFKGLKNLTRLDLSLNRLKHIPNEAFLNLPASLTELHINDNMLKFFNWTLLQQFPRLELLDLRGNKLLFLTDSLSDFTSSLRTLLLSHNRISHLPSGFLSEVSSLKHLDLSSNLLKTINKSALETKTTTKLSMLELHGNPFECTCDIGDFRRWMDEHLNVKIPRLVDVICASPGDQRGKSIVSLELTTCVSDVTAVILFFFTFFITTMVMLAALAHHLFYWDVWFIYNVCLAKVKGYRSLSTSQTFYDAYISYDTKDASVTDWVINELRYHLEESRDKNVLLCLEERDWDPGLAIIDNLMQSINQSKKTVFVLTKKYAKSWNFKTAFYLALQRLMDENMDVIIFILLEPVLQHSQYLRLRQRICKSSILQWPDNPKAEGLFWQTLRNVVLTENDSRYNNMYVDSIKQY
human TLR7, sequence (Q9NYK1 27-1049): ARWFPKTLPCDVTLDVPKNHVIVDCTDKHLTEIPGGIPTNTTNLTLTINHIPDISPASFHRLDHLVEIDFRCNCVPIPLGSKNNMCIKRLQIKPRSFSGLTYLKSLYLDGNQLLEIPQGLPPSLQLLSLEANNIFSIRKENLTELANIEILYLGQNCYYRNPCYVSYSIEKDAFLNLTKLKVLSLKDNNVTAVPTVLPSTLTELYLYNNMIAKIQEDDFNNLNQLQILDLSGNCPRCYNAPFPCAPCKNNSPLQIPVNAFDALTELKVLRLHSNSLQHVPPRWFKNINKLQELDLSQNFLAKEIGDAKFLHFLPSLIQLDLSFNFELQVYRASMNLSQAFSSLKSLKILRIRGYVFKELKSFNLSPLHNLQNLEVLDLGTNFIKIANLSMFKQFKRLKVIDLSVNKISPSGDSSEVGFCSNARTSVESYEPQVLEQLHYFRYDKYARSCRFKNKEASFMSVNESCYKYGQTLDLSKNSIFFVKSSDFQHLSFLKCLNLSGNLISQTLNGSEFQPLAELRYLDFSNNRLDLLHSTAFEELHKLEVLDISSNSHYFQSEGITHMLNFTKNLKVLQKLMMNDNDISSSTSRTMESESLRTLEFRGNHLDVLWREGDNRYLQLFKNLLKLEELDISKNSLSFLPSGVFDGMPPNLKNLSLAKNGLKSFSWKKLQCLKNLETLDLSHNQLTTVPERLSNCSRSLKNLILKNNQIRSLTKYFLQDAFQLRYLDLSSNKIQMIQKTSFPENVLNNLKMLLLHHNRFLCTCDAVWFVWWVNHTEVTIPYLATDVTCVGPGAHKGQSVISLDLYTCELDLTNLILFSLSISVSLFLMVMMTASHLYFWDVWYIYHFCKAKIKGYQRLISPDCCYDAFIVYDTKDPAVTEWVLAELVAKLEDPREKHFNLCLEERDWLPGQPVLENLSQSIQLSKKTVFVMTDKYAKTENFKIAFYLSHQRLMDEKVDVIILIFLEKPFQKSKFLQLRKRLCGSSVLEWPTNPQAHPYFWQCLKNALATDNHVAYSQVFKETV

SMILES	IC50 (human TLR8; [1]) [nM]	IC50 (human TLR9; [2]) [nM]	IC50 (human TLR7; [3]) [nM]	IC50 (human TLR8; [4]) [nM]	IC50 (human TLR9; [5]) [nM]	IC50 (human TLR7; [6]) [nM]
Cc1c(-c2[nH]c3ccc(C4CCC(N5CCC(F)(F)CC5)CC4)nc3c2C(C)C)cn2ncnc2c1C (stereo not drawn) [Example 381]	5.5	8060	3.7	–	–	–
Cc1c(-c2[nH]c3ccc(C4CCC(N5CCS(=O)(=O)CC5)CC4)nc3c2C(C)C)cn2ncnc2c1C (stereo not drawn) [Example 382]	22	> 50000	7.8	–	–	–
Cc1c(-c2[nH]c3ccc(C4CCC(N5CCS(=O)(=O)CC5)CC4)nc3c2C(C)C)cn2ncnc2c1C (stereo not drawn) [Example 383]	167	> 50000	33	–	–	–
Cc1c(-c2[nH]c3ccc(C4CCC(NCCC#N)CC4)nc3c2C(C)C)cn2ncnc2c1C (stereo not drawn) [Example 384]	25	1530	13	–	–	–
Cc1c(-c2[nH]c3ccc(C4CCC(N5CCC(F)(F)CC5)CC4)nc3c2C(C)C)cn2ncnc2c1C (stereo not drawn) [Example 385]	46	11200	22	–	–	–
Cc1c(-c2[nH]c3ccc(C4CCC(N5CCC5)CC4)nc3c2C(C)C)cn2ncnc2c1C (stereo not drawn) [Example 386]	4.2	1440	1.5	–	–	–
Cc1c(-c2[nH]c3ccc(C4CCC(N(C)C5CC5)CC4)nc3c2C(C)C)cn2ncnc2c1C (stereo not drawn) [Example 387]	19	5510	7.2	–	–	–
CCN(C)C1CCC(c2ccc3[nH]c(-c4cn5ncnc5c(C)c4C)c(C(C)C)c3n2)CC1 (stereo not drawn) [Example 388]	2.2	891	0.87	–	–	–
COCCN(C)C1CCC(c2ccc3[nH]c(-c4cn5ncnc5c(C)c4C)c(C(C)C)c3n2)CC1 (stereo not drawn) [Example 389]	1.6	923	0.45	–	–	–
CCN(C)C1CCC(c2ccc3[nH]c(-c4cn5ncnc5c(C)c4C)c(C(C)C)c3n2)CC1 (stereo not drawn) [Example 390]	7.6	3090	1.6	–	–	–
COCCN(C)C1CCC(c2ccc3[nH]c(-c4cn5ncnc5c(C)c4C)c(C(C)C)c3n2)CC1 (stereo not drawn) [Example 391]	14	2450	2.6	–	–	–
Cc1c(-c2[nH]c3ccc(C4CCC(N5CCC[C@H]5CO)CC4)nc3c2C(C)C)cn2ncnc2c1C (stereo partly drawn) [Example 392]	6.1	1750	3.2	–	–	–
Cc1c(-c2[nH]c3ccc(C4CCC(N5CCC[C@H]5CO)CC4)nc3c2C(C)C)cn2ncnc2c1C (stereo partly drawn) [Example 393]	1.3	360	0.47	–	–	–
Cc1ncc(CN(C)C2CCC(c3ccc4[nH]c(-c5cn6ncnc6c(C)c5C)c(C(C)C)c4n3)CC2)cn1 (stereo not drawn) [Example 394]	1.5	1410	1.4	–	–	–
COc1ncc(CN(C)C2CCC(c3ccc4[nH]c(-c5cn6ncnc6c(C)c5C)c(C(C)C)c4n3)CC2)cn1 (stereo not drawn) [Example 395]	–	–	–	10	1620	7.4
Cc1c(-c2[nH]c3ccc(C4CCC(N(C)C(=O)CN(C)C)CC4)nc3c2C(C)C)cn2ncnc2c1C (stereo not drawn) [Example 396]	–	–	–	17	1530	1.7
Cc1c(-c2[nH]c3ccc(C4CCC(N(C)Cc5c[nH]nn5)CC4)nc3c2C(C)C)cn2ncnc2c1C (stereo not drawn) [Example 397]	–	–	–	10	2400	6.3
Cc1c(-c2[nH]c3ccc(C4CCC(N(C)CC(N)=O)CC4)nc3c2C(C)C)cn2ncnc2c1C (stereo not drawn) [Example 398]	–	–	–	17	4120	3.8
CNC(=O)CN(C)C1CCC(c2ccc3[nH]c(-c4cn5ncnc5c(C)c4C)c(C(C)C)c3n2)CC1 (stereo not drawn) [Example 400]	–	–	–	2.9	1550	0.74
Cc1c(-c2[nH]c3ccc(C4CCC(N(C)C5COC5)CC4)nc3c2C(C)C)cn2ncnc2c1C (stereo not drawn) [Example 401]	–	–	–	6.4	5720	5.7
Cc1ncc(CN(C)C2CCC(c3ccc4[nH]c(-c5cn6ncnc6c(C)c5C)c(C(C)C)c4n3)CC2)cn1 (stereo not drawn) [Example 402]	–	–	–	43	5150	31
CNC(=O)CN(C)C1CCC(c2ccc3[nH]c(-c4cn5ncnc5c(C)c4C)c(C(C)C)c3n2)CC1 (stereo not drawn) [Example 403]	–	–	–	44	4280	7.7
Cc1c(-c2[nH]c3ccc(C4CCC(N(C)C(=O)CN(C)C)CC4)nc3c2C(C)C)cn2ncnc2c1C (stereo not drawn) [Example 404]	–	–	–	9.3	1540	3.8
COc1ncc(CN(C)C2CCC(c3ccc4[nH]c(-c5cn6ncnc6c(C)c5C)c(C(C)C)c4n3)CC2)cn1 (stereo not drawn) [Example 405]	–	–	–	2.5	1420	3.6
Cc1c(-c2[nH]c3ccc(C4CCC(N(C)CC(N)=O)CC4)nc3c2C(C)C)cn2ncnc2c1C (stereo not drawn) [Example 406]	–	–	–	3	1470	1.4

SMILES	IC50 (human TLR8; [1]) [nM]	IC50 (human TLR9; [2]) [nM]	IC50 (human TLR7; [3]) [nM]	IC50 (human TLR8; [4]) [nM]	IC50 (human TLR9; [5]) [nM]	IC50 (human TLR7; [6]) [nM]
Cc1c(-c2[nH]c3ccc(C4CCC(N5CCCC5)CC4)nc3c2C(C)C)cn2ncnc2c1C (stereo not drawn) [Example 407]	–	–	–	8.5	2460	7.2
Cc1c(-c2[nH]c3ccc(C4CCC(N(C)CC(=O)N(C)C)CC4)nc3c2C(C)C)cn2ncnc2c1C (stereo not drawn) [Example 408]	–	–	–	43	6440	18
Cc1c(-c2[nH]c3ccc(C4CCC(NCCO)CC4)nc3c2C(C)C)cn2ncnc2c1C (stereo not drawn) [Example 409]	–	–	–	1.6	550	1.7
Cc1c(-c2[nH]c3ccc(C4CCC(N(C)CC(=O)N(C)C)CC4)nc3c2C(C)C)cn2ncnc2c1C (stereo not drawn) [Example 410]	–	–	–	6.5	4920	5
CCN(CC)C1CCC(c2ccc3[nH]c(-c4cn5ncnc5c(C)c4C)c(C(C)C)c3n2)CC1 (stereo not drawn) [Example 411]	–	–	–	8	2300	6.3
Cc1c(-c2[nH]c3ccc(C4CCC(NCc5c[nH]nn5)CC4)nc3c2C(C)C)cn2ncnc2c1C (stereo not drawn) [Example 412]	–	–	–	2.1	727	2.2
Cc1c(-c2[nH]c3ccc(C4CCC(NCc5cnco5)CC4)nc3c2C(C)C)cn2ncnc2c1C (stereo not drawn) [Example 413]	–	–	–	18	4740	[…]
Cc1cnc(CN(C)C2CCC(c3ccc4[nH]c(-c5cn6ncnc6c(C)c5C)c(C(C)C)c4n3)CC2)cn1 (stereo not drawn) [Example 414]	–	–	–	12	1760	5.1
Cc1cnc(CN(C)C2CCC(c3ccc4[nH]c(-c5cn6ncnc6c(C)c5C)c(C(C)C)c4n3)CC2)cn1 (stereo not drawn) [Example 415]	–	–	–	3.5	1240	2.5
Cc1c(-c2[nH]c3ccc(C4CCC(NCc5cnco5)CC4)nc3c2C(C)C)cn2ncnc2c1C (stereo not drawn) [Example 416]	–	–	–	1.2	1620	[…]
Cc1c(-c2[nH]c3ccc(C4CCC(NCC5(S(C)(=O)=O)CC5)CC4)nc3c2C(C)C)cn2ncnc2c1C (stereo not drawn) [Example 419]	–	–	–	2.5	1740	4.1
CNC(=O)CN(C)C1CCC(c2ccc3[nH]c(-c4cn5ncnc5c(C)c4C)c(C(C)C)c3n2)CC1 (stereo not drawn) [Example 420]	–	–	–	2.8	3530	1.2
Cc1c(-c2[nH]c3ccc(C4CCC(NC5CC5)CC4)nc3c2C(C)C)cn2ncnc2c1C (stereo not drawn) [Example 421]	–	–	–	1.8	2060	1.6
CNC(=O)CN(C)C1CCC(c2ccc3[nH]c(-c4cn5ncnc5c(C)c4C)c(C(C)C)c3n2)CC1 (stereo not drawn) [Example 422]	–	–	–	35	6240	15
Cc1c(-c2[nH]c3ccc(C4CCC(NCCS(=O)(=O)C(F)(F)F)CC4)nc3c2C(C)C)cn2ncnc2c1C (stereo not drawn) [Example 423]	–	–	–	83	> 50000	175
Cc1c(-c2[nH]c3ccc(C4CCC(N(C)CCS(C)(=O)=O)CC4)nc3c2C(C)C)cn2ncnc2c1C (stereo not drawn) [Example 425]	–	–	–	0.5	2920	0.87
Cc1c(-c2[nH]c3ccc(C4CCC(NC5CC5)CC4)nc3c2C(C)C)cn2ncnc2c1C (stereo not drawn) [Example 426]	–	–	–	2.6	1400	2.5
Cc1c(-c2[nH]c3ccc(C4CCC(N(C)CCS(C)(=O)=O)CC4)nc3c2C(C)C)cn2ncnc2c1C (stereo not drawn) [Example 427]	–	–	–	7.6	4900	2.4
Cc1c(-c2[nH]c3ccc(C4CCC(N(CCC#N)C5CC5)CC4)nc3c2C(C)C)cn2ncnc2c1C (stereo not drawn) [Example 428]	–	–	–	6.4	9860	7.4
COCCNC1CCC(c2ccc3[nH]c(-c4cn5ncnc5c(C)c4C)c(C(C)C)c3n2)CC1 (stereo not drawn) [Example 429]	–	–	–	5.2	7000	3.4
COCCNC1CCC(c2ccc3[nH]c(-c4cn5ncnc5c(C)c4C)c(C(C)C)c3n2)CC1 (stereo not drawn) [Example 431]	–	–	–	11	4660	16
Cc1c(-c2[nH]c3ccc(C4CCC(NCCC#N)CC4)nc3c2C(C)C)cn2ncnc2c1C (stereo not drawn) [Example 432]	–	–	–	0.55	584	0.37
Cc1c(-c2[nH]c3ccc(C4CCC(N(CCC#N)C5CC5)CC4)nc3c2C(C)C)cn2ncnc2c1C (stereo not drawn) [Example 433]	–	–	–	60	> 50000	42
Cc1c(-c2[nH]c3ccc(C4CCC(N5CC(C#N)C5)CC4)nc3c2C(C)C)cn2ncnc2c1C (stereo not drawn) [Example 434]	–	–	–	2.4	7430	1.5
CC(=O)N(C)C1CCC(c2ccc3[nH]c(-c4cn5ncnc5c(C)c4C)c(C(C)C)c3n2)CC1 (stereo not drawn) [Example 439]	–	–	–	32	24200	3.5
